This test deals with T1, IL-1β (Homo sapiens, UniProt P01584).
T1 construct: purchased BioLegend 579404
Kind of test: IL-6 assay in MRC5 cells: inhibition of IL-1β induced IL-6 secretion (AlphaLISA). In kind it is cell-based. The settings on record: inhibition of IL-1β induced IL-6 secretion in MRC5 cells; compound pre-incubated 1 hour with recombinant human IL-1β; read-out: MRC5 IC50. An outline of the steps:
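Compound was pre-incubated 1 h at ambient temperature with recombinant human IL-1β at 2λ EC80 before adding human lung fibroblast MRC5 cells (3000/well) in EMEM with 0.025% BSA. After overnight culture at 37 °C, 5% CO2, secreted IL-6 in conditioned medium was measured by AlphaLISA; IC50 from 4-parameter logistic fits.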
A general note: In Alpha technology, singlet oxygen from a donor bead excites a nearby acceptor bead.

Non-standard residues stand in square brackets, D forms with d. Residues, ends and D or L forms follow the SMILES beside them. Trp(4-Cl)(βS-Me) = C[C@@H](c1c[nH]c2cccc(Cl)c12)[C@H](N)C(=O)O; dPro(4R-(4-pyridylmethyl)) = O=C(O)[C@H]1C[C@@H](Cc2ccncc2)CN1; Trp(βS-Me,4-F) = C[C@@H](c1c[nH]c2cccc(F)c12)[C@H](N)C(=O)O; 1Nal(3S-Me) = C[C@@H](c1cccc2ccccc12)[C@H](N)C(=O)O; Ala(pyrimidin-5-yl) = N[C@@H](Cc1cncnc1)C(=O)O; Phe(4-COOH) = N[C@@H](Cc1ccc(C(=O)O)cc1)C(=O)O; Bip = N[C@@H](Cc1ccc(-c2ccccc2)cc1)C(=O)O; Pro(cis-4-F) = O=C(O)[C@@H]1C[C@H](F)CN1; Ala(4-THP) = N[C@@H](CC1CCOCC1)C(=O)O; d(αMeD) = C[C@@](N)(CC(=O)O)C(=O)O; 4Pal = N[C@@H](Cc1ccncc1)C(=O)O; aThr = C[C@H](O)[C@H](N)C(=O)O; Dab = NCC[C@H](N)C(=O)O; Aib = CC(C)(N)C(=O)O

T1 sequence (P01584 117-269): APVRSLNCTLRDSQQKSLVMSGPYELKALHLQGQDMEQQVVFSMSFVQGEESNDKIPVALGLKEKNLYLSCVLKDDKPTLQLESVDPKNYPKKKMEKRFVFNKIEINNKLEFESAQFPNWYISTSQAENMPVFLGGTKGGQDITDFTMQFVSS

The term IC50 denotes the concentration that gives 50% inhibition. As for `C[C@@H](c1cccc2ccccc12)[C@@H]1NC(=O)[C@@H]2C[C@H](F)CN2C(=O)CNC(=O)[C@H](Cc2ccc(C(=O)O)cc2)NC(=O)[C@H](Cc2ccncc2)NC(=O)[C@H](Cc2ccc(-c3ccccc3)cc2)NC(=O)[C@H]2C[C@@H](Cc3ccncc3)CN2C(=O)CNC(=O)[C@H](CCN)NC(=O)[C@H](CCC(N)=O)NC(=O)[C@H](CC2CCOCC2)NC(=O)[C@@](C)(CC(=O)O)NC(=O)[C@H](Cc2c[nH]c3ccccc23)NC(=O)[C@H](CO)NC(=O)C(C)(C)NC1=O` [Example 290] (cyclo([Bip][4Pal][Phe(4-COOH)]G[Pro(cis-4-F)][1Nal(3S-Me)][Aib]SW[d(αMeD)][Ala(4-THP)]Q[Dab]G[dPro(4R-(4-pyridylmethyl))])), the concentration for half-maximal inhibition (IC50) came out at 0.018 nM.

As to `C[C@@H](c1cccc2ccccc12)[C@@H]1NC(=O)[C@@H]2C[C@H](F)CN2C(=O)CNC(=O)[C@H](Cc2ccc(C(=O)O)cc2)NC(=O)[C@H](Cc2ccncc2)NC(=O)[C@H](Cc2ccc(-c3ccccc3)cc2)NC(=O)[C@H]2C[C@@H](Cc3ccncc3)CN2C(=O)CNC(=O)[C@H](CCN)NC(=O)[C@H](CCC(N)=O)NC(=O)[C@H](Cc2cncnc2)NC(=O)[C@@](C)(CC(=O)O)NC(=O)[C@H](Cc2c[nH]c3ccccc23)NC(=O)[C@H](CO)NC(=O)C(C)(C)NC1=O` [Example 291] (cyclo([Bip][4Pal][Phe(4-COOH)]G[Pro(cis-4-F)][1Nal(3S-Me)][Aib]SW[d(αMeD)][Ala(pyrimidin-5-yl)]Q[Dab]G[dPro(4R-(4-pyridylmethyl))])), the half-maximal inhibitory concentration (IC50) stood at 0.018 nM.

For the molecule `C[C@@H](c1c[nH]c2cccc(Cl)c12)[C@@H]1NC(=O)[C@@H]2C[C@H](F)CN2C(=O)CNC(=O)[C@H](Cc2ccc(C(=O)O)cc2)NC(=O)[C@H](Cc2ccncc2)NC(=O)[C@H](Cc2ccc(-c3ccccc3)cc2)NC(=O)[C@H]2C[C@@H](Cc3ccncc3)CN2C(=O)CNC(=O)[C@H](CCN)NC(=O)[C@H](CCC(N)=O)NC(=O)[C@H](Cc2cncnc2)NC(=O)[C@@](C)(CC(=O)O)NC(=O)[C@H](Cc2c[nH]c3ccccc23)NC(=O)[C@H](CO)NC(=O)C(C)(C)NC1=O` [Example 292] (cyclo([Bip][4Pal][Phe(4-COOH)]G[Pro(cis-4-F)][Trp(4-Cl)(βS-Me)][Aib]SW[d(αMeD)][Ala(pyrimidin-5-yl)]Q[Dab]G[dPro(4R-(4-pyridylmethyl))])), the concentration for half-maximal inhibition (IC50) came out at 0.015 nM. Take `C[C@H](O)[C@@H]1NC(=O)[C@@](C)(CC(=O)O)NC(=O)[C@H](Cc2c[nH]c3ccccc23)NC(=O)[C@H](CO)NC(=O)C(C)(C)NC(=O)[C@H]([C@@H](C)c2c[nH]c3cccc(F)c23)NC(=O)[C@@H]2C[C@H](F)CN2C(=O)CNC(=O)[C@H](Cc2ccc(C(=O)O)cc2)NC(=O)[C@H](Cc2ccncc2)NC(=O)[C@H](Cc2ccc(-c3ccccc3)cc2)NC(=O)[C@H]2C[C@@H](Cc3ccncc3)CN2C(=O)CNC(=O)[C@H](CCN)NC(=O)[C@H](CCC(N)=O)NC1=O` [Example 293] (cyclo([Bip][4Pal][Phe(4-COOH)]G[Pro(cis-4-F)][Trp(βS-Me,4-F)][Aib]SW[d(αMeD)][aThr]Q[Dab]G[dPro(4R-(4-pyridylmethyl))])): the half-maximal inhibitory concentration (IC50) amounted to 0.01 nM.

In the case of `C[C@@H](c1c[nH]c2cccc(F)c12)[C@@H]1NC(=O)[C@@H]2C[C@H](F)CN2C(=O)CNC(=O)[C@H](Cc2ccc(C(=O)O)cc2)NC(=O)[C@H](Cc2ccncc2)NC(=O)[C@H](Cc2ccc(-c3ccccc3)cc2)NC(=O)[C@H]2C[C@@H](Cc3ccncc3)CN2C(=O)CNC(=O)[C@H](CCN)NC(=O)[C@H](CCC(N)=O)NC(=O)[C@H](CC2CCOCC2)NC(=O)[C@@](C)(CC(=O)O)NC(=O)[C@H](Cc2c[nH]c3ccccc23)NC(=O)[C@H](CO)NC(=O)C(C)(C)NC1=O` [Example 294] (cyclo([Bip][4Pal][Phe(4-COOH)]G[Pro(cis-4-F)][Trp(βS-Me,4-F)][Aib]SW[d(αMeD)][Ala(4-THP)]Q[Dab]G[dPro(4R-(4-pyridylmethyl))])), the IC50 turned out to be 0.014 nM.

Values taken from patent US20260242419A1, “A CYCLIC PEPTIDE FOR TRAPPING INTERLEUKIN-1 BETA” (Merck Sharp & Dohme LLC, priority 2023, published 2026).
